Test results taken from patent US20170165253A1, “TREATMENT OF SEXUAL DYSFUNCTION AND FOR IMPROVED SEXUAL QUALITY OF LIFE” (ReJoy, priority 2015, published 2017).
Where “and” joins values, the source holds several entries; their conditions need not be identical. Equal values may be shown once. Where a name gives a salt, the structure may show the parent alone.

Assays:
[1] = system: skin on the subjects forearm; test: pH pilot study, pilomotor effect on forearm skin (Example 6); format: in vivo, human; details: 10% solution
Procedure: A pilot study was conducted to assess the optimal pH of topical phenylephrine solution required to elicit smooth muscle contraction on the skin. A series of 10% phenylephrine solutions were prepared in phosphate buffer solutions of varied pH. pH 4.6, 4.8, 5.0, 5.2, 5.4, 5.6, 5.8, 6.0, 6.2, 6.4, and 6.6 were used. Areas of skin on the subjects forearm were marked with a surgical pen. 50 microliter of each solution were applied to the marked area of skin and allowed to dry. After one hour the sites of application were visually inspected for the appearance of the pilomotor effect (i.e., “goose bumps”).

nipple areola complex = test: Restoration of nipple sensitivity post breast surgery, case study (Example 11); format: in vivo, human; details: Likert scale (1-10), 45 minutes after 10% solution, single patients; Hydrochloride
Procedure: A case study was conducted to assess the efficacy of a topical phenylephrine solution in increasing nipple sensitivity in patients that reported a loss in nipple sensitivity post breast surgery. Five subjects ages 36-65 participated in the study. Subjects were asked to rate their nipple sensitivity on a Likert scale (1-10) before surgery and currently (i.e., after surgery). Next, patients were asked to apply a 10% phenylephrine solution to each nipple areola complex. 45 minutes after application of the drug, patients were asked again to rate their nipple sensitivity on a Likert scale (1-10).

nipple areole complex [2] = test: Pilot study in female sexual dysfunction, SSE by Sexual Activity Record (Example 4)
nipple areole complex [3] = test: Pilot dose study of nipple erection and sensitivity, topical phenylephrine (Example 3); format: in vivo, human; details: 10% topical solution
Procedure: A pilot study was conducted to assess the dosage of topical phenylephrine solution required to elicit nipple erection and sensitivity. […] Two subjects were post-menopausal and the reminder three were pre-menopausal. Subjects were not hypertensive, pregnant or breastfeeding. Three formulations were used: Formula A: 0% topical phenylephrine hydrochloride solution; Formula B: 5% topical phenylephrine hydrochloride solution; Formula C: 10% topical phenylephrine hydrochloride solution.
The study was conducted over 3 days. On day 1, subjects were instructed to apply on the left nipple Formula A and on the right nipple Formula B. On day 2, subjects were instructed to apply on the left nipple Formula A and on the right nipple Formula C. On day 3, subjects were instructed to apply on the left nipple Formula B and on the right nipple Formula C. 0.1 mL of each formula was applied with a cotton swab to the nipple areole complex. […] With the 10% topical phenylephrine solution, response in nipple erection and sensitivity was obtained in less than 30 minutes and lasted for 3-4 hours.

[4] = IVRT Franz cell skin penetration, excised pig skin; format: in vitro ADME; details: for Penetration (%), Sample 1-3 / Penetration (%), Average: pig skin; for Penetration (%), Sample 1-3: single replicates, Hydrochloride
Description: Transdermal penetration of a particular formulation can be assessed with in vitro release testing (IVRT) using a Franz cell. See Bartosova and Bajagar, “Transdermal Drug Delivery In Vitro Using Diffusion Cells,” Current Medicinal Chemistry, 2012, 19, 4671-4677.
In order to determine the dermal absorption and bioavailability of topically applied 10% Phenylephrine Hydrochloride solution, we used an IVRT experimental setup with both skin excised from pig ears and a synthetic skin model (Maine Manufacturing, LLC, Me., USA).
In the example, the following data was obtained from a Franz cell diffusion experiment using excised pigskin barrier. A 50 microliter aliquot of a phenylephrine solution was allowed to penetrate through 9 mm diameter sample of pigskin into a 5 mL reservoir of phosphate buffered saline. Phenylephrine concentration was determined in the reservoir by measuring the optical absorbance at 214 nm at time points subsequent to the application of the formulation. In the following example the test solution was 10% (w/w) phenylephrine, 10% (w/w) Dimethyl Isosorbide, and 80% (w/w) ethanol. From the data below, it can be concluded that the formulation can be deemed “successful” because 82% of the applied drug penetrated the pigskin membrane in 3 hours. The experiment was run in triplicate. The average of all three data is shown. It is envisioned that additional studies may be undertaken with other models of in vitro release testing or with variations of the same model to compare with the data reported below.

arrector pili muscle = details: 1% w/v, iontophoresis; cited from earlier work
[5] = Heart rate, blood pressure and adverse events in Example 12; format: in vivo, human; details: for Delta HR t = 15: 15 minutes; for Delta HR t = 15 / Delta HR t = 30 / Delta HR t = 60: single patients, Hydrochloride; for Delta HR t = 30: 30 minutes; for Delta HR t = 60: 60 minutes
Procedure: 20 healthy, pre-menopausal females were recruited to the study. Subjects were instructed to apply either 4 or 6 drops of an investigational drug to each nipple areola complex. Baseline blood-pressure, heart rate, nipple erection, nipple sensitivity, genital lubrication and arousal were measured and recorded. […]

CNC[C@H](O)c1cccc(O)c1 [Phenylephrine HCl, Phenylephrine Hydrochloride]
Results after 1 hour (pilomotor effect) ([1]; pH 4.6, 50 microliter on forearm): None | Results after 1 hour (pilomotor effect) ([1]; pH 4.8): Slight | Results after 1 hour (pilomotor effect) ([1]; pH 5.0): Strong | Results after 1 hour (pilomotor effect) ([1]; pH 5.2): Strong | Results after 1 hour (pilomotor effect) ([1]; pH 5.4): Strong | Results after 1 hour (pilomotor effect) ([1]; pH 5.6): Slight | Results after 1 hour (pilomotor effect) ([1]; pH 5.8): Slight | Results after 1 hour (pilomotor effect) ([1]; pH 6.0): None | Results after 1 hour (pilomotor effect) ([1]; pH 6.2): None | Results after 1 hour (pilomotor effect) ([1]; pH 6.4): None | Results after 1 hour (pilomotor effect) ([1]; pH 6.6): None | Nipple Sensitivity, Post-Surgery + Drug (nipple areola complex): 6 (2×) and 1 and 8 (2×) | Number of SSE (1 week) (nipple areole complex [2]; 0.1 mL 10% solution per NAC about 1 hour before sexual activity, single subjects, Hydrochloride): 2 (2×) and 1 (2×) and 6 and 3 (3×) and 4 | time nipples remained sensitive (nipple areole complex [2]; 10% solution): 3 to 4 h | time to increased nipple sensitivity after application (nipple areole complex [2]; 10% solution, all subjects): ≤ 30 min | subjects with significant change in number of SSEs from baseline (nipple areole complex [2]; nine subjects, one week): Seven subjects reported significant change in the number of SSEs from baseline | adverse events (nipple areole complex [2]; one subject of nine): slightly painful nipple erection | persistence of sensitivity (nipple areole complex [2]; one subject with initial slightly painful nipple erection): approximately 8 hours | desire (modified FSFI desire domain) (nipple areole complex [2]; subjects reporting increase in number of SSEs): increased desire | duration of response in nipple erection and sensitivity (nipple areole complex [3]): 3 to 4 h | time to response in nipple erection and sensitivity (nipple areole complex [3]): less than 30 minutes | average absorption per nipple-areola complex ([4]; 0.1 mL of 10% solution not removed for 24 hours): 8.3 mg | applied drug penetrated the pigskin membrane ([4]; 10% (w/w) in 10% Dimethyl Isosorbide, 80% ethanol, 3 hours): 82% | Penetration (%), Sample 1-3 ([4]; 10% solution, 50 microliter, 1 h): 32.3% and 2.1% and 0.7% | Penetration (%), Average ([4]; 10% solution, 1 h): 11.7% | Penetration (%), Average ([4]; 10% solution, 2 h): 61.1% | Penetration (%), Sample 1-3 ([4]; 10% solution, 2 h): 80.6% and 89.0% and 13.6% | Penetration (%), Average ([4]; 10% solution, 3 h): 82.8% | Penetration (%), Sample 1-3 ([4]; 10% solution, 3 h): 78.9% and 87.5% and 81.9% | Penetration (%), Average ([4]; 10% solution, 4 h): 81.0% | Penetration (%), Sample 1-3 ([4]; 10% solution, 4 h): 78.6% and 83.4% and 81.1% | Penetration (%), Average ([4]; 10% solution, 5 h): 81.9% | Penetration (%), Sample 1-3 ([4]; 10% solution, 5 h): 78.5% and 86.0% and 81.3% | Penetration (%), Average ([4]; 10% solution, 24 h): 81.6% | Penetration (%), Sample 1-3 ([4]; 10% solution, 24 h): 81.3% and 83.1% and 80.3% | maximal skin absorption in 24 hours ([4]; 10% solution, skin excised from pig ears): ≤ 83% | piloerection on the forearm (arrector pili muscle): can activate the piloerection on the forearm | Delta HR t = 15 ([5]; 10% Arm C, four drops (0.114 mL) per NAC): −3 (2×) and −10 and 3 (4×) and −7 and 0 (3×) and −1 (2×) and −2 (3×) and 4 and −9 and 6 and −5 | Delta HR t = 30 ([5]; 10% Arm C, four drops): −2 and −12 and 13 and −7 (3×) and −3 (2×) and −1 (2×) and 5 and 7 (2×) and 3 (2×) and −4 (3×) and 0 (2×) | Delta HR t = 60 ([5]; 10% Arm C, four drops): −2 (2×) and −7 and −1 (3×) and −6 (2×) and −4 (4×) and 5 (2×) and −8 and 7 and 2 (2×) and −9 and −10 | Delta HR t = 15 ([5]; 15% (Arm D), four drops): −9 (4×) and 1 (2×) and 0 and −4 (2×) and −6 and 4 and −15 and −8 and −5 and −3 (3×) and 6 and −1 and −2 | Delta HR t = 30 ([5]; 15% (Arm D), four drops): −14 and 4 (2×) and 0 and −1 and −2 (3×) and 6 and −10 (2×) and −4 and −5 and 2 and −12 and 8 and 5 and 1 and 3 and −8 | Delta HR t = 60 ([5]; 15% (Arm D), four drops): −16 and 4 and −6 (3×) and −2 (4×) and −4 and −7 and −9 and 1 and −3 (2×) and 0 (2×) and −10 and 2 and −11 | Delta HR t = 15 ([5]; 20% (Arm B), four drops): −15 and 3 and −2 (2×) and −1 (2×) and −6 (2×) and 2 and −4 (2×) and −10 and 6 and 1 and −7 and −5 and 10 and −3 and 7 and 0 | Delta HR t = 30 ([5]; 20% (Arm B), four drops): −20 and 4 and −6 and −14 and −3 (2×) and 7 (2×) and 1 (3×) and −1 (2×) and −7 and 10 (2×) and −9 (2×) and 3 and 6 | Delta HR t = 60 ([5]; 20% (Arm B), four drops): −21 (2×) and 3 and 1 and −13 and 6 and −1 and 0 (2×) and −8 and −6 (2×) and 4 (2×) and −3 (2×) and −4 and 11 and 9 and −2 | adverse event ([5]; 20% arm): one adverse event (nipple pain) | changes in blood pressure or heart rate ([5]; all arms, 10-20%): no changes in blood pressure or heart rate
